The source of these data is patent publication US20250161281A1, “EMOPAMIL-BINDING PROTEIN INHIBITORS AND USES THEREOF” (BIOGEN MA INC., priority 2022, published 2025).

pIC50: −log10 of the molar value. Bounds are passed on as bounds.

For this assay, the target named is T1, EBP (Homo sapiens, UniProt Q15125).
T1 construct: HEK293T cells were utilized as the source of EBP enzyme; endogenous in cells; host or cells: HEK293T
T1 sequence (Q15125 whole entry): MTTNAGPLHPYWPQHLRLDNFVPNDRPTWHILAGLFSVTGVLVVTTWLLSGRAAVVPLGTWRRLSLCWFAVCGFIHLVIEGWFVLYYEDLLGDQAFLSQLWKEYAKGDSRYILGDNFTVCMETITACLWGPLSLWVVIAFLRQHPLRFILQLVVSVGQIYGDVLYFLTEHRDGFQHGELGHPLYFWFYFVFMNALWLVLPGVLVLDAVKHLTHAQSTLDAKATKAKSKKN
The experiment in a line: EBP Functional Assay (EBP immunoaffinity LC-MS assay). The assay is classed as biochemical. To be noted: HEK293T cells as source of EBP enzyme; 30 min with inhibitor, then zymosterol-d5, 37° C. for 4 h; percent conversion by LC-APCI MRM MS. How it is done: The EBP immunoaffinity (IA) LC-MS assay measures the potency of small molecule inhibitors of EBP by quantifying their concentration-dependent changes in the enzyme's substrate and product using liquid chromatography atmospheric pressure chemical ionization multiple reaction monitoring mass spectrometry (LC-APCI MRM MS). HEK293T cells were utilized as the source of EBP enzyme. The enzyme was incubated with the small molecule inhibitors at variable concentrations for 30 min. Deuterated form of EBP substrate, zymosterol-d5 (Avanti Polar Lipids, Cat #700068P-1 mg), was then added and the plate was incubated at 37° C. for 4 h. Finally, the sterol isomers were extracted and injected to LC-APCI MRM MS. MRM transition used for the quantification for both zymosterol and dihydrolathosterol (substrate and product of EBP enzymatic reaction, respectively) is 372.3-203.2, CE 30 and DP 80 in positive ion mode. Percent conversion of the zymosterol-d5 to dehydrolathosterol-d5 was used to derive IC50 curves. Tasin-1 (1′-[(4-Methoxyphenyl)sulfonyl]-4-methyl-1,4′-bipiperidine, CAS 792927-06-1) was used as the reference small molecule inhibitor. Percent conversion versus the compound concentration data were fit to the following 4-parameter logistic model to generate IC50 curves: […]
As for `O=S(=O)(c1ccc(OC(F)F)cc1)N1C2CCC1CC(NC1COC1)C2` (centres unmarked) [Example 74, 8-((4-(Difluoromethoxy)phenyl)sulfonyl)-N-(oxetan-3-yl)-8-azabicyclo[3.2.1]octan-3-amine], the pIC50 (commonly the IC50 on a negative log10 scale, so that one unit is a factor of ten) is under 5.70.

With `O=S(=O)(c1ccc(OC(F)F)cc1)N1[C@@H]2CC[C@H]1C[C@@H](NC[C@H]1C[C@@H](O)C1)C2` (single isomer, unassigned) [Example 64], the negative logarithm of the IC50 (pIC50) was 6.82 to 7.30.

Compound `COc1nc(C)ccc1S(=O)(=O)N1[C@@H]2CC[C@H]1C[C@H](N1CCC(C)CC1)C2` [Example 3, (1R,3s,5S)-8-((2-Methoxy-6-methylpyridin-3-yl)sulfonyl)-3-(4-methylpiperidin-1-yl)-8-azabicyclo[3.2.1]octane] showed a pIC50 of over 7.30.

As to `Cc1nonc1S(=O)(=O)N1[C@@H]2CC[C@H]1C[C@@H](N1CCC(C)CC1)C2` [Example 1, 3-Methyl-4-(((1R,3r,5S)-3-(4-methylpiperidin-1-yl)-8-azabicyclo[3.2.1]octan-8-yl)sulfonyl)-1,2,5-oxadiazole], the pIC50 is over 7.30.

Take `Cc1nc(C(F)(F)F)ccc1S(=O)(=O)N1[C@@H]2CC[C@H]1C[C@@H](NCC1CCOCC1)C2` (single isomer, unassigned) [Example 25]: the negative-log IC50 (pIC50) is over 7.30.

The compound `Cc1cc(C)c(S(=O)(=O)N2[C@@H]3CC[C@H]2C[C@H](CN2CCOCC2)C3)cn1` [Example 39, 4-(((1R,3s,5S)-8-((4,6-Dimethylpyridin-3-yl)sulfonyl)-8-azabicyclo[3.2.1]octan-3-yl)methyl)morpholine] showed a negative logarithm of the IC50 (pIC50) of 6.82 to 7.30.

In the case of `CC(O)CCN[C@@H]1C[C@H]2CC[C@@H](C1)N2S(=O)(=O)c1ccc(OC(F)F)cc1` (mixture of isomers) [Example 60, rac-4-(((1R,3s,5S)-8-((4-(difluoromethoxy)phenyl)sulfonyl)-8-azabicyclo[3.2.1]octan-3-yl)amino)butan-2-ol], the pIC50 was 5.70 to 6.82.

`CC(C)(O)CN[C@H]1C[C@H]2CC[C@@H](C1)N2S(=O)(=O)c1ccc(OC(F)F)cc1` [Example 77, 1-(((1R,3r,5S)-8-((4-(Difluoromethoxy)phenyl)sulfonyl)-8-azabicyclo[3.2.1]octan-3-yl)amino)-2-methylpropan-2-ol] showed a pIC50 of 6.82 to 7.30.

Consider `O=S(=O)(c1ccc(OC(F)F)cc1)N1C2CCC1CC(NCC1CC(O)C1)C2` (single isomer, unassigned) [Example 61], for which the negative logarithm of the IC50 (pIC50) is 6.82 to 7.30.

For the compound `CC1CCN([C@@H]2C[C@H]3CC[C@@H](C2)N3S(=O)(=O)c2cnc(C3CCOCC3)o2)CC1` [Example 6, 5-(((1R,3s,5S)-3-(4-Methylpiperidin-1-yl)-8-azabicyclo[3.2.1]octan-8-yl)sulfonyl)-2-(tetrahydro-2H-pyran-4-yl)oxazole], the pIC50 was over 7.30.

Compound `COCCC1CN(C2CC3CCC(C2)N3S(=O)(=O)c2ccc(OC(F)F)cc2)C1` (centres unmarked) [Example 54, 8-((4-(Difluoromethoxy)phenyl)sulfonyl)-3-(3-(2-methoxyethyl)azetidin-1-yl)-8-azabicyclo[3.2.1]octane] had a negative-log IC50 (pIC50) of 5.70 to 6.82.

`O=S(=O)(c1ccc(OC(F)F)cc1)N1[C@@H]2CC[C@H]1C[C@@H](NCC1COC1)C2` [Example 72, (1R,3r,5S)-8-((4-(Difluoromethoxy)phenyl)sulfonyl)-N-(oxetan-3-ylmethyl)-8-azabicyclo[3.2.1]octan-3-amine] gave a pIC50 of over 7.30.

As to `O=S(=O)(c1ccc(OC(F)F)cc1)N1[C@@H]2CC[C@H]1C[C@@H](NCC1(F)COC1)C2` (single isomer, unassigned) [Example 71], the negative-log IC50 (pIC50) is 5.70 to 6.82.

Regarding `Cc1nn(C)c2ncc(S(=O)(=O)N3[C@@H]4CC[C@H]3C[C@H](N3CCC(C)CC3)C4)cc12` [Example 45, 1,3-Dimethyl-5-(((1R,3s,5S)-3-(4-methylpiperidin-1-yl)-8-azabicyclo[3.2.1]octan-8-yl)sulfonyl)-1H-pyrazolo[3,4-b]pyridine], the pIC50 is 5.70 to 6.82.

Consider `O=S(=O)(c1ccc(OC(F)F)cc1)N1[C@@H]2CC[C@H]1C[C@@H](NCC1(O)CCOCC1)C2` [Example 17, 4-((((1R,3r,5S)-8-((4-(Difluoromethoxy)phenyl)sulfonyl)-8-azabicyclo[3.2.1]octan-3-yl)amino)methyl)tetrahydro-2H-pyran-4-ol], for which the pIC50 was over 7.30.

`Cc1cc(S(=O)(=O)N2[C@@H]3CC[C@H]2C[C@@H](CN2CCOCC2)C3)n(C)n1` [Example 37, 4-(((1R,3r,5S)-8-((1,3-Dimethyl-1H-pyrazol-5-yl)sulfonyl)-8-azabicyclo[3.2.1]octan-3-yl)methyl)morpholine] had a negative logarithm of the IC50 (pIC50) of over 7.30.

In the case of `O=S(=O)(c1ccc(OC(F)F)cc1)N1C2CCC1CC(NCC1CC(O)C1)C2` (single isomer, unassigned) [Example 62], the negative-log IC50 (pIC50) was 6.82 to 7.30.

For `O=S(=O)(c1ccc(OC(F)F)cc1)N1[C@@H]2CC[C@H]1C[C@H](CN1CCOCC1)C2` [Example 67, 4-(((1R,3s,5S)-8-((4-(Difluoromethoxy)phenyl)sulfonyl)-8-azabicyclo[3.2.1]octan-3-yl)methyl)morpholine], the pIC50 is over 7.30.

Regarding `COCCC(C)NC1CC2CCC(C1)N2S(=O)(=O)c1ccc(OC(F)F)cc1` (centres unmarked) [Example 52, 8-((4-(Difluoromethoxy)phenyl)sulfonyl)-N-(4-methoxybutan-2-yl)-8-azabicyclo[3.2.1]octan-3-amine], the pIC50 was over 7.30.

With `CC(O)CNC1CC2CCC(C1)N2S(=O)(=O)c1ccc(OC(F)F)cc1` (centres unmarked) [Example 48, 1-((8-((4-(Difluoromethoxy)phenyl)sulfonyl)-8-azabicyclo[3.2.1]octan-3-yl)amino)propan-2-ol], the pIC50 was 5.70 to 6.82.

`O=S(=O)(c1ccc(OC(F)F)cc1)N1C2CCC1CC(N[C@@H]1CCOC1)C2` (stereo partly drawn) [Example 70, 8-((4-(Difluoromethoxy)phenyl)sulfonyl)-N—((R)-tetrahydrofuran-3-yl)-8-azabicyclo[3.2.1]octan-3-amine] had a pIC50 of 6.82 to 7.30.

With `Cc1cnc(S(=O)(=O)N2[C@@H]3CC[C@H]2C[C@H](N2CCC(C)CC2)C3)c(C)c1` [Example 46, (1R,3s,5S)-8-((3,5-Dimethylpyridin-2-yl)sulfonyl)-3-(4-methylpiperidin-1-yl)-8-azabicyclo[3.2.1]octane], the negative logarithm of the IC50 (pIC50) is 5.70 to 6.82.

Compound `CC1CCN([C@@H]2C[C@H]3CC[C@@H](C2)N3S(=O)(=O)c2ccc3c(c2)CC(C)(C)C(=O)N3)CC1` [Example 5, 3,3-Dimethyl-6-(((1R,3s,5S)-3-(4-methylpiperidin-1-yl)-8-azabicyclo[3.2.1]octan-8-yl)sulfonyl)-3,4-dihydroquinolin-2(1H)-one] gave a negative-log IC50 (pIC50) of over 7.30.

`Cc1nc(C(F)(F)F)ccc1S(=O)(=O)N1[C@@H]2CC[C@H]1C[C@H](NCC1CCOCC1)C2` (single isomer, unassigned) [Example 24]: the pIC50 was over 7.30.

Regarding `COc1cc(F)c(S(=O)(=O)N2[C@@H]3CC[C@H]2C[C@H](N2CCC(C)CC2)C3)c(F)c1` [Example 43, (1R,3s,5S)-8-((2,6-Difluoro-4-methoxyphenyl)sulfonyl)-3-(4-methylpiperidin-1-yl)-8-azabicyclo[3.2.1]octane], the pIC50 was 6.82 to 7.30.

As for `Cc1ccnc(-n2cc(S(=O)(=O)N3[C@@H]4CC[C@H]3C[C@@H](N3CCC(C)CC3)C4)cn2)c1` [Example 40, (1R,3r,5S)-3-(4-methylpiperidin-1-yl)-8-((1-(4-methylpyridin-2-yl)-1H-pyrazol-4-yl)sulfonyl)-8-azabicyclo[3.2.1]octane], the negative-log IC50 (pIC50) was 5.70 to 6.82.

For `Cc1nc(C(F)(F)F)ccc1S(=O)(=O)N1[C@@H]2CC[C@H]1C[C@H](NC1CC3(COC3)C1)C2` (single isomer, unassigned) [Example 68], the negative-log IC50 (pIC50) is over 7.30.

In turn, `CC1CCN([C@H]2C[C@H]3CC[C@@H](C2)N3S(=O)(=O)c2ccc(OC(F)F)cc2)CC1` [Example 20, (1R,3r,5S)-8-((4-(difluoromethoxy)phenyl)sulfonyl)-3-(4-methylpiperidin-1-yl)-8-azabicyclo[3.2.1]octane] gave a pIC50 of over 7.30.

As for `O=S(=O)(c1ccc(OC(F)F)cc1)N1[C@@H]2CC[C@H]1C[C@@](O)(CN1CCOCC1)C2` [Example 34, (1R,3s,5S)-8-((4-(Difluoromethoxy)phenyl)sulfonyl)-3-(morpholinomethyl)-8-azabicyclo[3.2.1]octan-3-ol], the pIC50 was 6.82 to 7.30.

Consider `CC1CCN([C@@H]2C[C@H]3CC[C@@H](C2)N3S(=O)(=O)c2cc(-c3ccccc3)n[nH]2)CC1` [Example 10, (1R,3s,5S)-3-(4-Methylpiperidin-1-yl)-8-((3-phenyl-1H-pyrazol-5-yl)sulfonyl)-8-azabicyclo[3.2.1]octane], for which the negative logarithm of the IC50 (pIC50) was over 7.30.

As for `CC1CCN([C@@H]2C[C@H]3CC[C@@H](C2)N3S(=O)(=O)c2c3c(nn2C)CCOC3)CC1` [Example 9, 2-Methyl-3-(((1R,3s,5S)-3-(4-methylpiperidin-1-yl)-8-azabicyclo[3.2.1]octan-8-yl)sulfonyl)-2,4,6,7-tetrahydropyrano[4,3-c]pyrazole], the negative-log IC50 (pIC50) is over 7.30.

Compound `Cc1nc(C(F)(F)F)ccc1S(=O)(=O)N1[C@@H]2CC[C@H]1C[C@H](NC1CCOCC1)C2` [Example 75, (1R,3s,5S)-8-((2-Methyl-6-(trifluoromethyl)pyridin-3-yl)sulfonyl)-N-(tetrahydro-2H-pyran-4-yl)-8-azabicyclo[3.2.1]octan-3-amine] had a negative-log IC50 (pIC50) of 5.70 to 6.82.
